This note sets out measurements from US20260021120A1, “METHOD FOR TREATING INFLAMMATORY SKIN DISEASE USING 6-DIAZO-5-OXO-L-NORLEUCINE” (Dermato Bio Inc., priority 2019, published 2026).

Entries after “also recorded” stand apart in the source; their conditions may differ.

Experiment [1] relates to NFκB. Description: TNF-α-induced NFκB activation (luciferase activity) in keratinocytes. The note with it: 25 ng/ml TNF-α co-treated 8 hours, 100 μM DON, 5 μM Bay11-7082, vs TNF-α only-treated group. Type of experiment: cell-based. As to the method: (§1) This example was intended to indirectly confirm the inhibition of chemokine secretion and histone acetylation by confirming the activity of NFκB in skin cells with a dermatitis lesion, and confirming whether the accelerated NFκB activity was inhibited.
(§2) NIH3T3/NFκB-luc cells, which is a cell line capable of confirming the activity of an NFκB transcription factor through luciferase activity were treated with 25 ng/ml of TNF-α to activate an NFκB signal, and as a positive control, 5 μM of a TNF-α inhibitor, Bay11-7082 (Bay), causing an NF-κB signaling inhibitory action was used. NIH3T3/NFκB-luc cells were dispensed at […] in a 96-well plate, and stabilized in an incubator for 24 hours. To confirm the DON efficacy on NFκB, TNF-α and 100 μM DON were co-treated for 8 hours and then lysed, thereby obtaining a cell enzyme solution, and then the cell enzyme solution was reacted with luciferin, and luciferase activity was measured using a luminometer (FIGS. 3 and 4). The difference in the number of cells between treatment groups was corrected with the resulting values of luciferase activity using protein quantification.

In experiment [2] the test system is NFκB. Nature of the experiment: TNF-α-induced NFκB activation (luciferase activity) in fibroblasts (NIH3T3/NFκB-luc cells). Format: cell-based. The note with it: 25 ng/ml TNF-α co-treated 8 hours, 100 μM DON, 5 μM Bay11-7082, vs TNF-α only-treated group. As to the method:
as §1, §2

The subject of a further experiment is TPA-induced inflammation. Description: TPA-induced inflammation inhibiting experiment (mouse ear). Particulars: for visual skin condition of the ear area: after 5 days of application, compared to a negative control (FIG. 6); for number of mast cells / penetration of mast cells into lesion: toluidine blue staining, 200× image, DEX 3 mg, CRI 0.6 mg, DON 0.1 mg on ears, vs TPA positive control. Type of experiment: in vivo, C57BL/6 female mice. As to the method:
For an experiment of inducing and inhibiting inflammation using 12-O-tetradecanoylphorbol-13-acetate (TPA, Sigma), 14 week-old C57BL/6 female mice were purchased from NARA Biotech (Korea) and used. The purchased mice were acclimated for 7 days, and healthy animals were selected and tested. During the experimental period, the mice were raised while maintaining the environment at a temperature of 21 to 25° C., a relative humidity of 45 to 65% and a lighting time of 12 hours, and freely fed feed and drinking water.
First, the acclimated mice with similar characteristics such as a body weight and size were divided into five experimental groups of 3, and separately raised to confirm an anti-inflammation level. Inflammation was induced by first applying 1.0 ug of TPA to each of both ears of a mouse, and after 1 hour, a therapeutic material was applied, which was continued for 5 days. A mouse to which only acetone (Merck), which is a TPA solvent, was applied was set as a negative control (Vehicle), a mouse to which 1.0 ug of TPA dissolved in acetone was applied was set as a positive control and evaluated, and after TPA was applied, mice to which each of 3 mg of dexamethasone (DEX, Sigma), 0.6 mg of crisaborole (CRI, ChemScene) and 0.1 mg of 6-diazo-5-oxo-L-norleucine (DON, Sigma) was applied were set as experimental groups. After applying each material for 5 days by the above-described method, the weight, ear thickness and ear weight of each mouse were measured, and ear tissue was collected and histologically analyzed by hematoxylin & eosin (H&E) staining and toluidine blue staining.
FIG. 8 is a graph obtained by scoring visually evaluated ear lesions, divided into erythema, scaling and a thickness, and in the graph, the severity of symptoms was rated on a 5-point scale (0=none; 1=slight; 2=moderate; 3=marked; and 4=very marked).
Afterward, to confirm the anti-inflammatory effect of DON, the mouse's ear thickness and ear weight were measured and quantified (FIGS. 9A and 9B), and, based on the histological analysis result obtained by toluidine blue staining capable of confirming mast cells, the number of mast cells was measured by comparing three tissue samples per group using a 200× image (FIG. 9C). […] Therefore, it was confirmed that DON can alleviate pruritus symptoms by inhibiting the histamine secretion not only from epithelial cells but also from mast cells, and can also prevent severe dermatitis caused by secondary infection.

Experiment [3] relates to oxazolone-induced atopic dermatitis. Nature of the experiment: Oxazolone-induced atopic dermatitis inhibiting experiment (mouse ear). Type of experiment: in vivo, female BALB/c mice. As to the method: Using five 8-week-old female BALB/c mice per group, an effect of inhibiting oxazolone-induced atopic dermatitis was tested. In the experiment, dermatitis induced on the car of each mouse was treated with a therapeutic candidate, and it was attempted to confirm an effect depending on an administration route of a therapeutic agent through percutaneous application or subcutaneous injection. First, to induce atopic dermatitis in all groups excluding the negative control, 0.35 mg of 4-ethoxymethylene-2-phenyl-2-oxazolin-5-one (oxazolone, OXA) was mixed with 30 μl of acetone, and sensitization was preceded on each of the both ears with the 1% mixture. The same amount of a solvent without OXA was applied for the negative control (vehicle). From 7 days after the initial application of OXA, OXA (0.5%) was additionally applied every two days to induce dermatitis. For treatment groups, dexamethasone (DEX), tacrolimus (TAC), cyclosporine (CYCL), crisaborole (CRI) and DON were used. For percutaneous application, each time OXA was applied, after 1 hour, each of the therapeutic candidates was treated on both ears, and in the administration test via subcutaneous injection, injection was performed 1 hour after OXA treatment, but intermittently performed every two days. As an excipient used in the subcutaneous injection, filtered distilled water was used, and the control was also administered the same amount of sterile water. Finally, on day 22 after the initial OXA application, the experiment was terminated, and the mice were sacrificed and autopsied, ear tissue was collected, and to confirm the morphological structure of the tissue, H&E staining was performed, and to count the number of the infiltrated mast cells, toluidine blue staining was performed.
FIGS. 14A and 14B were obtained by quantifying the total number of cells and the number of mast cells, which are infiltrated into the dermis, from the staining results. (a) The cell numbers were compared using the total number of infiltrated cells in 200 square micrometers (μm^2), and (b) the mast cells infiltrated into the same area were converted into percentage (%) with respect to the total cell number.

The test system of the next experiment is IMQ-induced psoriasis. Nature of the experiment: IMQ-induced psoriasis inhibiting experiment (mouse back). Type of experiment: in vivo, female C57/BL6 mice. Particulars: 0.05% DON, 100 μl on back. As to the method: For a psoriasis inhibition experiment using imiquimod (IMQ, Tokyo Chemical Industry, 10747-100 mg), as an experimental animal, female C57/BL6 mice (n=5) were used. First, to induce psoriasis, sensitization was preceded by evenly applying 4 mg IMQ to the completely shaved back of each of the mice in all groups except a negative control at a volume of 100 μl. For the negative control, the same amount of a solvent without IMQ was applied. Psoriasis was induced by applying IMQ a total of five times at 24-hour intervals for 5 days, and for treatment groups, the same site was treated (applied) with 0.05% dexamethasone (DEX) ([…], 100 μl) or 0.05% DON (0.5 mg/ml, 100 μl) dissolved in ethanol one hour after IMQ treatment.
The severity of scaling (FIG. 20) visually evaluated at a lesion site was classified and evaluated by rating, and the severity of the symptom was rated on a 5-point scale (0=none; 1=slight; 2=moderate; 3=marked; and 4=very marked), and plotted on a graph.

Where [4] appears, read: ear lesion, DON 0.1 mg, 5 days (FIG. 8).

Regarding `Cc1ccc(S(=O)(=O)/C=C/C#N)cc1` [Bay11-7082, reference compound], the “NFκB activity by TNF-α (luciferase activity)” value with NFκB [1] and with NFκB [2] was “decreased” throughout.
For the compound `N#Cc1ccc(Oc2ccc3c(c2)COB3O)cc1` [CRI, crisaborole, reference compound], the “visual skin condition of the ear area” value with TPA-induced inflammation is “showed erythema and scaling”. Moreover, in the experiment with TPA-induced inflammation (after 5 days), the “number of mast cells / penetration of mast cells into lesion” value is “significantly decreased”.
Consider `[N-]=[N+]=CC(=O)CC[C@H](N)C(=O)O` [DON, 6-diazo-5-oxo-L-norleucine], for which the “thickened skin tissue of the epidermis and dermis (histological analysis)” value with TPA-induced inflammation (H&E, after 5 days, DON 0.1 mg on ears (FIG. 7)) is “becomes thinner”. Also, the “thickness of the epithelium” value with TPA-induced inflammation (TPA-induced inflammation, inflammatory lesion treated with DON (FIG. 1)) is recorded as “significantly reduced”; in experiment [3] (oxazolone-induced inflammation, inflammatory lesion treated with DON (FIG. 2)) it was “significantly reduced”. Moreover, in the experiment on TPA-induced inflammation, the “visual skin condition of the ear area” value is “showed erythema and scaling”. The “degree of erythema (visual score, 5-point scale)” value with TPA-induced inflammation (setting [4]) is “significantly reduced”. Also, the “degree of scaling (visual score, 5-point scale)” value in the experiment with TPA-induced inflammation (setting [4]) is given as “significantly reduced”. Moreover, the “degree of thickness (visual score, 5-point scale)” value in the experiment on TPA-induced inflammation (setting [4]) was “significantly reduced”. The “number of mast cells / penetration of mast cells into lesion” value with TPA-induced inflammation (after 5 days) is “significantly decreased; also recorded: weakened”; in experiment [3] (toluidine blue staining, dermis of ear, day 22), “significantly reduces; also recorded: weakened”. The “weight (g) of ear tissue” value in experiment [3] (0.1% (0.0272 mg), ear, percutaneous application (FIG. 12A)) is listed as “significantly decreased”. In experiment [3] (0.1% (0.0272 mg), ear, percutaneous application (FIG. 12B)), the “thickness (mm) of ear tissue” value is recorded as “significantly decreased”. Further, the “visual symptoms of atopic dermatitis (tissue swelling, eczema, deformation of the ear tissue)” value in experiment [3] (0.1% (0.0272 mg), ear, percutaneous application, vs OXA group (FIG. 11)) is recorded as “significant skin improvement”. In addition, in experiment [3] (histological analysis, total infiltrated cells in 200 μm^2), the “number of immune cells introduced into the dermis” value is recorded as “significantly reduces; also recorded: small”. For the same compound, the “changes in the epithelium of skin” value in experiment [3] (visual and histological analysis) is on record as “significantly reduces”. Besides, the “skin thickness at the lesion” value in the experiment on IMQ-induced psoriasis (5 days (FIG. 21)) is “significantly reduced”. Also, in the experiment with IMQ-induced psoriasis (5 days, vs IMQ positive control (FIG. 20)), the “severity of scaling (visual score, 5-point scale)” value is recorded as “significantly decreased”. Besides, the “NFκB activity by TNF-α (luciferase activity)” value in the experiment on NFκB [1] and in the experiment with NFκB [2] was “reduced; also recorded: inhibited” each time.
